Assay results reported in US12304912B2, “Fused bicyclic RAF inhibitors and methods for use thereof” (Jazz Pharmaceuticals Ireland Limited, priority 2020, dated 2025).
Where a name gives a salt, the structure may show the parent alone. Read-outs that look alike come from different tables or passages of the source.

Tests used:
[1] = test system: BRAF monomers in A375 cells; experiment: A375 AlphaLISA SureFire pERK1/2 cellular assay (monomer); format: cell-based; conditions: Homo sapiens, read-out: pERK A375 (1 hr) pIC50 (converted)
How it was run: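 BRAF^V600E A375 melanoma cells seeded at 30,000/well in DMEM with 10% FBS, dosed without medium exchange in a 10-point series from 10 μM at 1/2-log steps, 1 h at 37 °C. Phospho-ERK1/2 (Thr202/Tyr204) measured in lysates by AlphaLISA SureFire; absolute IC50 relative to DMSO control.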

[2] = Plasma protein binding assay, mouse plasma (mPPB); format: in vitro ADME; conditions: 5 μM
How it was run: (§1)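 Equilibrium dialysis of 5 μM compound in previously frozen human or mouse plasma against phosphate buffer, 4 h at 37 °C. Both chambers quantified by LC-MS/MS; % free = (1−((PC−PF)/PC))×100.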

[3] = Microsomal stability assay, mouse liver microsomes (MLM); format: in vitro ADME; conditions: 0.5 mg/mL protein, 1 μM substrate
How it was run: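 Half-life and CLint come from the ln(% remaining)–time slope, with remaining compound quantified by LC-MS/MS after ice-cold solvent quench of timed samples. Incubations used 1 μM test compound and 0.5 mg·mL^−1 human or mouse liver microsomal protein at 37° C.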

[4] = Plasma protein binding assay, human plasma (hPPB); format: in vitro ADME; conditions: 5 μM
How it was run: as §1

[5] = test system: RAF dimers in HCT-116 cells; experiment: HCT-116 AlphaLISA SureFire pERK1/2 cellular assay (dimer); format: cell-based; conditions: Homo sapiens
How it was run: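 HCT-116 (KRAS G13D) cells, 30,000/well, pretreated 1 h with 1 μM Encorafenib to induce RAF dimers, washed, then dosed 1 h at 37° C with compound (10-point, top 10 μM, 1/2 log steps) in growth medium. pERK1/2 (T202/Y204) measured by AlphaLISA SureFire; absolute IC50 versus DMSO control.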

[6] = equilibrium dialysis 4 hours at 37° C.
[7] = HCT-116, HCT116 cells, dimer, 1 hr, read-out: pERK HCT116 dimer (1 hr) plC50 (converted)
[8] = equilibrium dialysis 4 hours 37° C.
[9] = HCT-116, HCT116 cells pre-dosed with 1 μM Encorafenib, 1 hr, read-out: pERK HCT116 dimer (1 hr) pIC50 (converted)

Compound: O=C1CCc2c(Oc3ccc4c(c3)CC(c3nc(-c5cncc(C(F)F)c5)c[nH]3)CO4)ccnc2N1 (stereo not drawn) [Compound 105, 5-[3-[4-[5-(difluoromethyl)-3-pyridyl]-1H-imidazol-2-yl]chroman-6-yl]oxy-3,4-dihydro-1H-1,8-naphthyridin-2-one]
- IC50 ([1]; A-375, A375 cells, 1 hr): 417 nM
- mPPB (% free) [2, 6]: 0.86 % free
- microsomal CLint at 1 μM ([3]; 37° C.): 2.1 µL/min/mg
- hPPB (% free) [4, 6]: 1.0 % free
- IC50 [5, 7]: 64.6 nM

Compound: O=C1CCc2c(Oc3ccc4c(c3)CC(c3nc5cc(Cl)ccc5[nH]3)CO4)ccnc2N1 (stereo not drawn) [Compound 25]
- IC50 ([1]; A-375, A375 cells, 1 hr): 115 nM
- mPPB (% free) [2, 8]: 1.5 % free
- microsomal CLint at 1 μM [3]: 48.5 µL/min/mg
- hPPB (% free) [4, 8]: 0.3 % free
- IC50 [5, 9]: 115 nM

Compound: O=C(Nc1cc(Oc2ccc3c(c2)CC(c2nc(-c4ccccc4)c[nH]2)CO3)ncn1)C1CC1 (stereo not drawn) [Compound 151, N-[6-[3-(4-phenyl-1H-imidazol-2-yl)chroman-6-yl]oxypyrimidin-4-yl]cyclopropanecarboxamide]
- IC50 ([1]; A-375, 1 h): 347 nM
- mPPB (% free) [2, 6]: <0.1 % free
- microsomal CLint at 1 μM ([3]; 37° C.): 161 µL/min/mg
- hPPB (% free) [4, 6]: 0.21 % free
- IC50 [5, 7]: 204 nM

Compound: COc1csc(-c2c[nH]c(C3COc4ccc(Oc5ccnc6c5CCC(=O)N6)cc4C3)n2)c1 (stereo not drawn) [Compound 122, 5-[3-[5-(4-methoxy-2-thienyl)-1H-imidazol-2-yl]chroman-6-yl]oxy-3,4-dihydro-1H-1,8-naphthyridin-2-one]
- IC50 ([1]; A-375, A375 cells, 1 hr): 288 nM
- mPPB (% free) [2, 6]: 0.21 % free
- microsomal CLint at 1 μM ([3]; 37° C.): 70.8 µL/min/mg
- hPPB (% free) [4, 6]: 0.23 % free
- IC50 [5, 7]: 162 nM

Compound: O=C(CN1CCCC1)Nc1cc(Oc2ccc3c(c2)CC(c2nc(-c4ccccc4)c[nH]2)CO3)ccn1 (stereo not drawn) [Compound 152]
- IC50 ([1]; A-375, A375 cells, 1 hr): 603 nM
- mPPB (% free) [2, 6]: 0.47 % free
- microsomal CLint at 1 μM ([3]; 37° C.): 259 µL/min/mg
- hPPB (% free) [4, 6]: 0.48 % free
- IC50 [5, 7]: 275 nM

Compound: O=C(Nc1cc(Oc2ccc3c(c2)CC(c2nc(-c4ccccc4)c[nH]2)CO3)ccn1)C1CC(F)(F)C1 (stereo not drawn) [Compound 139]
- IC50 ([1]; A-375, A375 cells, 1 hr): 1070 nM
- mPPB (% free) [2, 6]: <0.1 % free
- MLM (CLint) ([3]; 37° C.): 277 µL/min/mg
- hPPB (% free) [4, 6]: <0.1 % free
- IC50 [5, 7]: 219 nM

Compound: O=C(Cn1ccnc1)Nc1cc(Oc2ccc3c(c2)CC(c2nc(-c4ccccc4)c[nH]2)CO3)ccn1 (stereo not drawn) [Compound 144]
- IC50 ([1]; A-375, A375 cells, 1 hr): 204 nM
- mPPB (% free) [2, 6]: 0.8 % free
- microsomal CLint at 1 μM ([3]; 37° C.): 29.3 µL/min/mg
- hPPB (% free) [4, 6]: 0.7 % free
- IC50 [5, 7]: 60.3 nM

Compound: Cc1ccc(-c2c[nH]c(C3COc4ccc(Oc5ccnc6c5CCC(=O)N6)cc4C3)n2)s1 (stereo not drawn) [Compound 110]
- IC50 ([1]; A-375, A375 cells, 1 hr): 107 nM
- mPPB (% free) [2, 6]: 0.1 % free
- microsomal CLint at 1 μM ([3]; 37° C.): 55.5 µL/min/mg
- hPPB (% free) [4, 6]: 0.2 % free
- IC50 [5, 7]: 50.1 nM

Compound: O=C1CCc2c(Oc3ccc4c(c3)CC(c3nc(-c5ccc(C(F)(F)F)nc5)c[nH]3)CO4)ccnc2N1 (stereo not drawn) [Compound 127, 5-[3-[4-[6-(trifluoromethyl)-3-pyridyl]-1H-imidazol-2-yl]chroman-6-yl]oxy-3,4-dihydro-1H-1,8-naphthyridin-2-one]
- IC50 ([1]; A-375, A375 cells, 1 hr): 851 nM
- mPPB (% free) [2, 6]: 0.2 % free
- microsomal CLint at 1 μM ([3]; 37° C.): 13.4 µL/min/mg
- hPPB (% free) [4, 6]: 0.6 % free
- IC50 [5, 7]: 158 nM

Compound: O=C1CCc2c(Oc3ccc4c(c3)CC(c3nc5cc(C(F)(F)F)ccc5[nH]3)CO4)ccnc2N1 (stereo not drawn) [Compound 22, 5-[3-[6-(trifluoromethyl)-1H-benzimidazol-2-yl]chroman-6-yl]oxy-3,4-dihydro-1H-1,8-naphthyridin-2-one]
- IC50 ([1]; A-375, A375 cells, 1 hr): 20 nM
- mPPB (% free) [2, 8]: <0.1 % free
- microsomal CLint at 1 μM [3]: 25.1 µL/min/mg
- hPPB (% free) [4, 8]: <0.1 % free
- IC50 [5, 9]: 155 nM

Compound: O=C1CCc2c(Oc3ccc4c(c3)CC(c3nc5cc(F)c(F)cc5[nH]3)CO4)ccnc2N1 (stereo not drawn) [Compound 23]
- IC50 ([1]; A-375, A375 cells, 1 hr): 257 nM
- mPPB (% free) [2, 8]: 0.5 % free
- microsomal CLint at 1 μM [3]: 30.5 µL/min/mg
- hPPB (% free) [4, 8]: 0.5 % free
- IC50 [5, 9]: 224 nM

Compound: Cn1ncc2ccc(-c3c[nH]c(C4COc5ccc(Oc6ccnc7c6CCC(=O)N7)cc5C4)n3)cc21 (stereo not drawn) [Compound 130, 5-[3-[4-(1-methylindazol-6-yl)-1H-imidazol-2-yl]chroman-6-yl]oxy-3,4-dihydro-1H-1,8-naphthyridin-2-one]
- IC50 ([1]; A-375, A375 cells, 1 hr): 1000 nM
- mPPB (% free) [2, 6]: 0.2 % free
- microsomal CLint at 1 μM ([3]; 37° C.): 23.5 µL/min/mg
- hPPB (% free) [4, 6]: 0.1 % free
- IC50 [5, 7]: 166 nM

Compound: O=C1CCc2c(Oc3ccc4c(c3)CC(c3nc(C5CCOCC5)c[nH]3)CO4)ccnc2N1 (stereo not drawn) [Compound 132, 5-[3-(4-tetrahydropyran-4-yl-1H-imidazol-2-yl)chroman-6-yl]oxy-3,4-dihydro-1H-1,8-naphthyridin-2-one]
- IC50 ([1]; A-375, A375 cells, 1 hr): 759 nM
- mPPB (% free) [2, 6]: 10.1 % free
- microsomal CLint at 1 μM ([3]; 37° C.): 9.3 µL/min/mg
- hPPB (% free) [4, 6]: 2.6 % free
- IC50 [5, 7]: 427 nM

Compound: O=C1CCc2c(Oc3ccc4c(c3)CN(C(=O)Nc3ccc(C(F)(F)F)cc3)CC4)ccnc2N1 [Compound 47]
- IC50 ([1]; A-375, A375 cells, 1 hr): 229 nM
- mPPB (% free) [2, 8]: 0.3 % free
- microsomal CLint at 1 μM [3]: 32.5 µL/min/mg
- hPPB (% free) [4, 8]: 0.7 % free
- IC50 [5, 9]: 64.6 nM

Compound: CCn1nc(C)cc1-c1c[nH]c(C2COc3ccc(Oc4ccnc5c4CCC(=O)N5)cc3C2)n1 (stereo not drawn) [Compound 124, 5-[3-[4-(2-ethyl-5-methyl-pyrazol-3-yl)-1H-imidazol-2-yl]chroman-6-yl]oxy-3,4-dihydro-1H-1,8-naphthyridin-2-one]
- IC50 ([1]; A-375, A375 cells, 1 hr): 1070 nM
- mPPB (% free) [2, 6]: 3.9 % free
- microsomal CLint at 1 μM ([3]; 37° C.): 28.2 µL/min/mg
- hPPB (% free) [4, 6]: 2.7 % free
- IC50 [5, 7]: 269 nM

Compound: O=C(CN1CCOCC1)Nc1cc(Oc2ccc3c(c2)CC(c2nc(-c4ccccc4)c[nH]2)CO3)ccn1 (stereo not drawn) [Compound 149]
- IC50 ([1]; A-375, A375 cells, 1 hr): 1320 nM
- mPPB (% free) [2, 6]: 0.14 % free
- microsomal CLint at 1 μM ([3]; 37° C.): 231 µL/min/mg
- hPPB (% free) [4, 6]: 0.25 % free
- IC50 [5, 7]: 363 nM

Compound: CCc1cc(-c2c[nH]c(C3COc4ccc(Oc5ccnc6c5CCC(=O)N6)cc4C3)n2)n(C2CC2)n1 (stereo not drawn) [Compound 113, 5-[3-[4-(2-cyclopropyl-5-ethyl-pyrazol-3-yl)-1H-imidazol-2-yl]chroman-6-yl]oxy-3,4-dihydro-1H-1,8-naphthyridin-2-one]
- IC50 ([1]; A-375, A375 cells, 1 hr): 4680 nM
- mPPB (% free) [2, 6]: 1.6 % free
- microsomal CLint at 1 μM ([3]; 37° C.): 38.2 µL/min/mg
- hPPB (% free) [4, 6]: 0.6 % free
- IC50 [5, 7]: 513 nM

Compound: O=C1CCc2c(Oc3ccc4c(c3)CN(c3nc(-c5ccccc5)n[nH]3)CC4)ccnc2N1 [Compound 44, 5-[[2-(3-phenyl-1H-1,2,4-triazol-5-yl)-3,4-dihydro-1H-isoquinolin-7-yl]oxy]-3,4-dihydro-1H-1,8-naphthyridin-2-one hydrochloride]
- IC50 ([1]; A-375, A375 cells, 1 hr): 1200 nM
- mPPB (% free) [2, 8]: 0.9 % free
- microsomal CLint at 1 μM [3]: 11 µL/min/mg
- hPPB (% free) [4, 8]: 0.3 % free
- IC50 ([5]; HCT-116, 1 h, read-out: pERK HCT116 dimer (1 hr) pIC50 (converted)): 288 nM

Compound: CC(C)(C)CCc1c[nH]c(C2COc3ccc(Oc4ccnc5c4CCC(=O)N5)cc3C2)n1 (stereo not drawn) [Compound 115, 5-[3-[4-(3,3-dimethylbutyl)-1H-imidazol-2-yl]chroman-6-yl]oxy-3,4-dihydro-1H-1,8-naphthyridin-2-one]
- IC50 ([1]; A-375, A375 cells, 1 hr): 13.8 nM
- mPPB (% free) [2, 6]: 0.3 % free
- hPPB (% free) [4, 6]: 0.3 % free
- IC50 [5, 7]: 105 nM

Compound: Cn1nc(C2CC2)cc1-c1c[nH]c(C2COc3ccc(Oc4ccnc5c4CCC(=O)N5)cc3C2)n1 (stereo not drawn) [Compound 125, 5-[3-[4-(5-cyclopropyl-2-methyl-pyrazol-3-yl)-1H-imidazol-2-yl]chroman-6-yl]oxy-3,4-dihydro-1H-1,8-naphthyridin-2-one]
- IC50 ([1]; A-375, A375 cells, 1 hr): 4470 nM
- IC50 [5, 7]: 138 nM

Compound: O=C1CCc2c(Oc3ccc4c(c3)CC(c3nc(-c5cccnc5C(F)(F)F)c[nH]3)CO4)ccnc2N1 (stereo not drawn) [Compound 128, 5-[3-[4-[2-(trifluoromethyl)-3-pyridyl]-1H-imidazol-2-yl]chroman-6-yl]oxy-3,4-dihydro-1H-1,8-naphthyridin-2-one]
- IC50 ([1]; A-375, A375 cells, 1 hr): 832 nM
- mPPB (% free) [2, 6]: 1.2 % free
- hPPB (% free) [4, 6]: 0.9 % free
- IC50 [5, 7]: 263 nM

Compound: CC(C)CCc1c[nH]c(C2COc3ccc(Oc4ccnc5c4CCC(=O)N5)cc3C2)n1 (stereo not drawn) [Compound 116]
- IC50 ([1]; A-375, A375 cells, 1 hr): 46.8 nM
- mPPB (% free) [2, 6]: 0.23 % free
- hPPB (% free) [4, 6]: 0.13 % free
- IC50 [5, 7]: 87.1 nM

Compound: COc1cc(-c2c[nH]c(C3COc4ccc(Oc5ccnc6c5CCC(=O)N6)cc4C3)n2)ccn1 (stereo not drawn) [Compound 104]
- mPPB (% free) [2, 6]: 1.5 % free
- MLM (CLint) ([3]; 37° C.): 23 µL/min/mg
- hPPB (% free) [4, 6]: 1.9 % free
- IC50 [5, 7]: 347 nM
